Results: US5837282A, “Ionophore-mediated liposome loading” (priority 1996, dated 1998)

What was measured:
in vivo = conditions: mouse, iv; for half-life: 2 mg/kg
Procedure: Lipid was measured using [^14 C]cholesteryl hexadecyl ether as a tracer. The %-retention is defined as the D/L ratio at time t divided by the initial measured drug to lipid ratio.
SPM/Chol vesicles (100 nm) were used (55:45; mole %). The vesicles were prepared in a 300 mM K2 SO4 solution or 300 mM MnSO4 and the external medium was exchanged with 300 mM sucrose, 20 mM HEPES, pH 7.0 by overnight dialysis. […] Uptake of the drug was accomplished in the following manner: to an aliquot of liposomes was added either nigericin (1 ng per μmol of lipid) or A23187 (0.1 ,μg/μmol lipid) along with an appropriate amount of drug. For the A23187 experiments, EDTA was present in the external medium at 30 mM.
Each mouse was injected via a lateral tail vein with 200 μL total volume. […] At varying time points, mice were anaesthetized and blood was collected via cardiac puncture. Blood was immediately centrifuged at 500 g and plasma was collected for lipid and drug determination.
Each drug was loaded using several methods, and was injected at time 0 into mice. At the indicated times, samples were withdrawn and the D/L ratio of the recovered LUVs was determined.

[1] = Vincristine uptake (loading) into LUVs using A23187 / Mn2+ systems; type: physicochemical; conditions: SPM/Chol LUVs, 300 mM MnSO4, 60 °C; for %-uptake / Retention: D/L 0.05, A23187 0.1 μg/μmol lipid
Procedure: (§1) [^14 C]CIPRO was diluted with cold CIPRO and the specific activity was determined by liquid scintillation counting and absorbance spectroscopy. […] For experiments involving [^14 C]CIPRO, the lipid mixtures were labeled using trace amounts of [^3 H]CHE. For [^3 H]VINC uptake the lipid was labeled with [^14 C]CHE. Lipid specific activities were determined by liquid scintillation counting and by quantification of phospholipid via phosphate assays.
Excellent uptake and retention of VINC can also be obtained using Mn^2+ /A23187 with SPM/Chol LUVs (see FIG. 8). Less than 5% uptake was observed when there was no EDTA present in the external medium of Hepes-buffered sucrose (pH 7.5). […] However, extremely poor uptake (40%) is observed at lower external pHs when using 300 mM sucrose 3 mM EDTA.

[2] = In vitro drug leakage from LUVs in 50% mouse serum at 37 °C; type: in vitro ADME; conditions: SPM/Chol LUVs
Procedure: In this assay, equal volumes of the liposomal drug formulation and of mouse serum are combined in a test tube and incubated at 37° C. Leakage of the drug from the LUVs is assayed by removal of aliquots for spin column analysis.
An in vitro leakage assay has been designed which employs mouse serum to assess the relative retentive properties of the various liposomal systems. The assay is extremely simple, involving the incubation of equal volumes of mouse serum and LUV (loaded with drug) at 37° C., followed by the application of aliquots to spin columns to quantitate the change in D/L ratio with time.

[3] = Transmembrane ΔpH measured with [14C]methylamine after vincristine uptake; type: physicochemical; conditions: DSPC/Chol LUVs; 300 mM K2-tartrate pH 7.4; nigericin 1 ng/μmol lipid; external HEPES-buffered sucrose pH 5.3-6.3
[4] = literature; cited from earlier work
[5] = Vincristine uptake (loading) into LUVs using nigericin/K+ systems; type: physicochemical; conditions: 60 °C
Procedure: as §1
As with CIPRO, no uptake was observed prior to the addition of nigericin (arrow). […] A further improvement was obtained (93-95%) for LUVs prepared in 300 mM K2 SO4 pH 7.4 with an external pH of 6 (either 20 mM HEPES 300 mM sucrose or 20 mM MES 300 mM sucrose) (see FIG. 9B).

[6] = Drug uptake/leakage after removal of nigericin (spin column, dialysis); conditions: SPM/Chol LUVs; 300 mM KH2PO4 (printed 300 mm); nigericin 1 ng/μmol lipid; at 1 hr
Procedure: Uptake was monitored for LUVs containing 300 mM K2 SO4 at a nigericin concentration of 1 ng/μmol lipid (.box-solid.), and for LUVs which were preincubated with nigericin for 5 min at 60° C., and then passed down a spin column prior to addition of the drug (.circle-solid.).
Thus, an aliquot of nigericin (1 ng NIG/μmol lipid) was added to a sample of SPM/Chol LUVs containing 300 mm KH2 PO4 and the temperature was increased to 60° C. for 5 min to ensure association of nigericin with the lipid. The sample was then exhaustively dialysed at room temperature against 300 mM sucrose for 20 hours, following which an aliquot was passed down a spin column prior to drug loading with VINC (FIG. 10B).
To ensure that such was not the case, control uptake experiments were performed on LUVs containing ethylammonium sulfate and amylammonium sulfate which were subjected to the same conditions.

[7] = external 300 mM sucrose + 3 mM EDTA
[8] = SPM/Chol LUVs, 300 mM KH2PO4, D/L 0.05 wt:wt, nigericin 1 ng/μmol lipid, external 300 mM sucrose

SMILES: CC[C@]1(O)C[C@H]2CN(CCc3c([nH]c4ccccc34)[C@@](C(=O)OC)(c3cc4c(cc3OC)N(C=O)[C@H]3[C@@](O)(C(=O)OC)[C@H](OC(C)=O)[C@]5(CC)C=CCN6CC[C@]43[C@@H]65)C2)C1 [Vincristine, vincristine]
- factor by which drug leakage half-lives differ (citrate vs A23187) (in vivo): two
- half-life (in vivo): 6 h
- half-life (in vivo; pH 4): 8.5 h
- in vivo retention, A23187 versus 300 mM citrate pH 4.0 (in vivo; pH 4): comparable
- uptake ([1]; A23187, external Hepes-buffered sucrose pH 7.5, no EDTA): Less than 5%
- %-uptake [1, 7]: 40%
- Retention [1, 7]: excellent
- Retention ([1]; external 300 mM sucrose + 20 mM HEPES 3 mM EDTA pH 7.5): excellent
- %-uptake ([1]; external 300 mM sucrose + 20 mM HEPES 3 mM EDTA pH 7.5 (text: within one hour)): > 95%
- %-uptake ([1]; external 300 mM sucrose + 20 mM HEPES 3 mM EDTA pH 7.5 (text: within one hour), listed as VINC): over 95%
- Retention ([1]; external 300 mM sucrose + 20 mM HEPES 3 mM EDTA pH 7.5, listed as VINC): Excellent
- %-uptake ([1]; external 300 mM sucrose, no EDTA): 5%
- retention in mouse serum, K+/nigericin with phosphate or tartrate salts, or sulfate salts with external pH of 6 [2]: better retention
- retention of drug in mouse serum, Mn2+/A23187 versus K+/nigericin system [2]: better retention
- retention in mouse serum, Mn2+/A23187 versus LUVs loaded using methylammonium sulfate ([2]; results not shown): similar
- ΔpH present following drug uptake [3]: 2.3
- efficacy in liposomally-encapsulated formulations [4]: equal or increased efficacy
- toxicity in liposomally-encapsulated formulations [4]: significantly reduced toxicity
- Retention ([5]; DSPC/Chol LUVs, 300 mM K2-tartrate pH 7.4, D/L 0.05 wt:wt, nigericin 1 ng/μmol lipid, external 300 mM sucrose + 20 mM HEPES pH 5.3-6.3): excellent
- %-uptake ([5]; DSPC/Chol LUVs, 300 mM K2-tartrate pH 7.4, D/L 0.05 wt:wt, nigericin 1 ng/μmol lipid, external 300 mM sucrose + 20 mM HEPES pH 5.3-6.3 (text: within 15 min)): 85-90%
- %-uptake ([5]; SPM/Chol LUVs, 300 mM K2-tartrate pH 7.4, D/L 0.05 wt:wt, nigericin 1 ng/μmol lipid, external 300 mM sucrose + 20 mM MES pH 6.0): 70%
- %-uptake ([5]; SPM/Chol LUVs, 300 mM K2HPO4, D/L 0.05 wt:wt, nigericin 1 ng/μmol lipid, external 300 mM sucrose): < 5%
- uptake prior to the addition of nigericin ([5]; SPM/Chol LUVs, 300 mM K2SO4): no uptake
- Retention ([5]; SPM/Chol LUVs, 300 mM K2SO4, external 300 mM sucrose): excellent retention
- Retention ([5]; SPM/Chol LUVs, 300 mM K2SO4, external HEPES-buffered sucrose pH 7.5, over 75 minutes): poor retention
- encapsulation ([5]; SPM/Chol LUVs, 300 mM K2SO4, nigericin 1 ng/μmol lipid, external 300 mM sucrose): ~90%
- uptake ([5]; SPM/Chol LUVs, 300 mM K2SO4, nigericin 1 ng/μmol lipid, external HEPES-buffered sucrose pH 7.5): 60%
- %-uptake ([5]; SPM/Chol LUVs, 300 mM K2SO4 pH 7.4, D/L 0.05 wt:wt, nigericin 1 ng/μmol lipid, external 300 mM sucrose + 20 mM HEPES or MES pH 6.0): 92%
- %-uptake ([5]; SPM/Chol LUVs, 300 mM K2SO4 pH 7.4, D/L 0.05 wt:wt, nigericin 1 ng/μmol lipid, external 300 mM sucrose + 20 mM HEPES or MES pH 6.0, listed as VINC): 93-95%
- %-uptake [5, 8]: 80%
- Retention [5, 8]: excellent
- uptake after 20 h dialysis and spin column [6]: 60%
